The values that follow come from patent US9555032B2, “Methods for treatment and prevention of tauopathies and amyloid beta amyloidosis by modulating CRF receptor signaling” (Research Development Foundation, priority 2007, dated 2017).

Entries after “also recorded” stand apart in the source; their conditions may differ.

For data set [1] the following is noted: Gerhlert et al., 2007; cited from earlier work.
For data set [2] the following is noted: Gerhlert et al., 2007; cited from earlier work. The source holds these as a separate data set.
Data set [3] has as its system PS/APP mouse AD model (amyloid plaques). Put plainly: Amyloid plaque density in PS/APP transgenic mouse AD model with or without chronic variable stress. The class given is in vivo. The note with it: antalarmin 40 mg/kg/d ip; for density of plaques in cortex and hippocampus: sacrificed end of fifth month. The source says: The PS/APP mouse line was originally purchased from another research laboratory. These mice express the Swedish familial AD mutation of human amyloid precursor protein (APP) (APPK670N,M671L; line Tg2576) and the familial AD mutation of presenilin-1 (PSEN1-dE9) (Jankowsky et al., 2001). Hemizygous double mutant PS/APP offspring and non-transgenic mice were used in experimentation, as it has been reported that homozygote lines of Tg2576 cannot be generated (McGowan et al., 1999). Genotypes were determined by PCR analysis of ear or tail DNA.
For acute stress experiments, CRFR1-selective small molecule antagonist, antalarmin (Webster et al., 1996), was administered at 20 mg/kg by intraperitoneal (ip) injection 20 min before stress exposure. All animals were handled twice daily for at least 14d prior to experimentation, and receive daily mock ip injections to minimize stress of injection at testing. Antalarmin was solubilized in equal volumes of absolute ethanol and Cremaphor EL (Sigma-Aldrich, St. Louis, Mo.), as described (Webster et al., 1996; Pernar et al., 2004). This stock solution was diluted in prewarmed (50° C.) distilled water and adjusted to a final concentration of 4 mg/ml immediately prior to injection. For chronic administration, antalarmin was administered twice daily via ip injection (Wong et al., 1999).
CVS involved daily exposure to either two brief or one sustained stressor over 15d. Brief stressors included elevated plus maze exposure (30 min), shaker stress (30 min on an orbital shaker at 100 rpm), ip hypertonic saline injection (0.4 ml of 1.5M saline), restraint (30 min), tail suspension (10 min) and forced swimming (10 min in RT water). […]
There was no evidence of tau pathology (tangle formation), nor was it expected to develop in animals at this early stage of disease progression. […] While it remains to be determined whether this effect will maintain in older animals, and whether drug and/or stress exposure will affect tau pathology, the results provide an additional endorsement for considering CRFR1 as a therapeutic target in AD.

The subject of data set [4] is tau phosphorylation (tau-P) at the AT8 and PHF-1 sites. Nature of the data set: Acute restraint stress-induced tau phosphorylation, Western blot of hippocampal extracts, CRF-R1 antagonist pretreatment. The class given is in vivo, mouse. As for the experimental part: Acute restraint stress involved placing mice in ventilated 50 ml conical tubes for 30 min; repeated stress involved 14 consecutive daily exposures. Animals were killed at various intervals ranging from 20 min to 24 hr after stress. Control mice were handled comparably, but were not otherwise manipulated.
The small molecule, CRF-R1-selective antagonist, antalarmin (Webster et al., 1996), was administered at 20 mg/kg by intraperitoneal (ip) injection 20 min before stress exposure. All animals were handled twice daily for 28 d prior to experimentation, and received daily mock ip injections to minimize stress of injection at testing. […]
After sedation, the animals were decapitated and the hippocampus was rapidly dissected and frozen on dry ice. […] Protein concentrations were determined using a BCA Protein Assay Kit (Pierce Biotechnology, Rockford, Ill.). […] Primary antibodies were detected with either anti-mouse or rabbit horseradish peroxidase-linked secondary antibodies (1:1000 Calbiochem, San Diego, Calif.) and developed with an enhanced chemiluminescence Western blot detection kit (Supersignal West Pico, Pierce Biotechnology). Background subtraction was performed and quantitative band intensity readings were obtained using NIH Image software. […]
A general note: In western blotting, separated proteins are transferred to a membrane and probed.

The subject of data set [5] is interstitial fluid levels of Aβ. The note with it: central CRF administration; APP transgenic mice; Kang et al., 2007; cited from earlier work.
Data set [6] has as its system hippocampal tau-P (PHF-1 immunoreactivity). Put plainly: Intracerebroventricular CRF injection, PHF-1 immunohistochemistry of hippocampus. The data set is classed as in vivo, mouse. The note with it: 0.5 μg CRF icv, 40 min after administration. The text has this:
CRF-R1−/− (U.S. Pat. No. 6,147,275) and CRF-R2−/− (U.S. Pat. No. 6,353,152) mice, along with age-matched wt controls (n=3/group), were anesthetized with isoflurane, and implanted stereotaxically with 26-ga guide cannulae (Plastics One, Wallingford, Conn.) aimed to terminate above the lateral ventricle. Cannulae were affixed to the skull with dental acrylic adhering to jeweler's screws partially driven into the skull, and sealed externally with stylets. After 7 d recovery, stylets were replaced with 33-ga injection cannulae, and 2 hr later the animals were remotely injected with 0.5 μg synthetic mouse/human CRF in […] saline, or vehicle alone, over ˜1 min. To approximate the time frame used in acute stress experiments, animals were killed 40 min after icy injection and perfused for immunohistochemistry, as above. CRF was generously provided by Dr. J. Rivier (Salk Institute).
Mice were perfused with 4% paraformaldehyde, as previously described (Bittencourt and Sawchenko, 2000). 30 μm-thick frozen sections were cut on a sliding microtome and stored at −20° C. in cryoprotectant solution (20% glycerol and 30% ethylene glycol in 0.1 M phosphate buffer) until use. Free-floating sections containing the hippocampus were used to detect tau-P with PHF-1 (1:500) in mouse tissues using Mouse-on-Mouse Immunodetection Kit reagents (Vector, Burlingame, Calif.) to avoid detection of endogenous mouse immunoglobulin. Endogenous peroxidase was quenched with 0.3% hydrogen peroxide, followed by 1% sodium borohydride to reduce free aldehydes. Reaction product was developed using a nickel-enhanced glucose oxidase method (Shu et al., 1988).
To determine whether CRF is capable of independently eliciting hippocampal tau-P, wt and CRF-R-deficient mice were implanted with lateral ventricular cannulae for icy injection. Resultant PHF-1 immunoreactivity was examined 40 min after administration of CRF (0.5 μg in 5 μl) or vehicle (FIG. 4B). […] In contrast to stress effects, however, no labeling of pyramidal neurons or their processes was observed after icy CRF injections.

In the case of `CCC(CC)c1cc(C)nn2c(-c3sc(N4CCOCC4)nc3Cl)c(C)nc12` [MTIP, 3-(4-Chloro-2-Morpholin-4-yl-Thiazol-5-yl)-8-(1-Ethylpropyl)-2,6-Dimethyl-Imidazo[1,2b]Pyridazine], in data set [1], the “ability to cross the BBB” value was “has the ability to cross the BBB”. The solubility entry in data set [2] is recorded as “favorable solubility”.

For `CCCCN(CC)c1nc(C)nc2c1c(C)c(C)n2-c1c(C)cc(C)cc1C` [antalarmin], the “density of plaques (change by antagonist treatment)” value in data set [3] (both stressed and unstressed PS/APP mice, cerebral cortex) was “significantly reduced”. Further, the “density of plaques in cortex and hippocampus” value in data set [3] (stressed (CVS) PS/APP mice) is reported as 2.49 /mm^2; in data set [3] (unstressed PS/APP mice), 1.15 /mm^2. Moreover, in data set [4] (antalarmin 20 mg/kg ip 20 min before 30 min acute restraint, hippocampal extracts 20 min post-stress), the “stress-induced increments in tau phosphorylation at the AT8 and PHF-1 sites” value is “prevented stress-induced increments in phosphorylation at both sites; also recorded: blocked the stress-induced increment”. Besides, in data set [4] (antalarmin 20 mg/kg ip, unstressed mice, hippocampal extracts, relative to untreated controls), the “basal levels of tau-P at the AT8 or PHF-1 sites” value is recorded as “Neither antalarmin nor the vehicle used for its administration significantly altered basal levels of tau-P; also recorded: did not affect basal levels of phosphorylation”.

Consider “CRF: synthetic mouse/human corticotropin-releasing factor peptide, injected icv (SEEPPISLDLTFHLLREVLEMARAEQLAQQAHSNRKLMEII)”, for which, in data set [5], the “interstitial fluid levels of Aβ” value is listed as “can increase interstitial fluid levels of Aβ”. Besides, the “hippocampal tau-P (PHF-1 labeling) after icv CRF” value in data set [6] (CRF-R1-/- mice) is recorded as “comparable to the low level seen in saline-injected controls”. For the same molecule, the “hippocampal tau-P (PHF-1 immunoreactivity) after icv CRF” value in data set [6] (CRF-R2-/- mice) and in data set [6] (wt mice) was “robust increases in hippocampal tau-P” throughout.
